Source: patent publication US10494332B2, “Protein tyrosine phosphatases or SHP2 inhibitors and uses thereof” (Indiana University Research and Technology Corporation, priority 2015, dated 2019)

Key:
[1] = tested on: M. tuberculosis H37Rv; assay: Microplate Alamar Blue assay (MABA) MIC; assay type: cell-based, Mycobacterium tuberculosis
[2] = Pharmacokinetics and bioavailability in guinea pigs; assay type: in vivo, guinea pig
Protocol: All drugs were suspended in 1% DMSO, 0.5% DEA, 48.5% PEG 400, and 50% water. Blood was collected for analysis of these drugs in plasma pre-dose and at 1, 4, 8, 24, and 48 h post-dose. Plasma was separated and stored at −70° C. until analysis. Plasma drug concentrations were determined by liquid chromatography-mass spectrometry and liquid chromatography-tandem mass spectrometry over the concentration range of 0.005-1 mg/L with dilution to 10 mg/L. Pharmacokinetic variables were calculated from individual drug concentration-time data using non-compartmental methods as implemented in WinNonlin version 5.0 (Pharsight, Mountain View, Calif.) as described earlier.

[3] = tested on: M. tuberculosis Erdman; assay: Microplate Alamar Blue assay (MABA) MIC; assay type: cell-based; details: Mycobacterium tuberculosis, minimum inhibitory concentration, read-out: In vitro anti-Mtb activity MABA-MIC Erdman
[4] = tested on: mPTPB transfected Raw264.7 cells; assay: IFN-γ induced Erk1/2 phosphorylation in transfected Raw264.7 macrophages; assay type: cell-based, mouse
Protocol: Raw264.7 mouse macrophages were cultured in Dulbecco's modified Eagle's medium (DMEM) supplemented with 10% FBS (Invitrogen), penicillin (50 units/mL), and streptomycin (50 μg/mL) under a humidified atmosphere containing 5% CO2 at 37° C. Transfected Raw264.7 cells (Vector, WT-mPTPB) were seeded in a 12-well plate at a density of 4×10^4 cells/well. The following day cells were treated with mPTPB inhibitor 11a for 1 hour, then stimulated with IFN-γ (200 U/ml) for 1 hour. Subsequently, the cells were washed with ice-cold phosphate buffered saline, and lysed with lysis buffer on ice for 30 minutes. Cell lysate was then cleared by centrifuging at 13,000 rpm for 15 minutes. The phosphorylation of ERK1/2 was detected by Western blotting.

| Compound | Activity in standard MIC assay [1] | MIC ([1]; Mycobacterium tuberculosis, H37RV, minimum inhibitory concentration, read-out: In vitro anti-Mtb activity MABA-MIC H37Rv) [µM] | Time plasma concentration 10-fold in excess of biochemical IC50 ([2]; guinea pig, in vivo, po) | Tmax ([2]; guinea pig, plasma, po) [h] | Oral bioavailability and half-life in guinea pigs ([2]; oral) | MIC [3] [µM] | Erk1/2 phosphorylation in mPTPB transfected Raw264.7 cells ([4]; 8 nM, 16 nM, and 32 nM) | Erk1/2 phosphorylation in vector cells ([4]; vector Raw264.7 cells) |
| --- | --- | --- | --- | --- | --- | --- | --- | --- |
| Cc1c(Br)cc(NC(=O)CS(=O)(=O)O)cc1Br | devoid of activity | > 10 | 12-14 hours | 2.5 | good oral bioavailability and half-life | > 10 | – | – |
| O=C(C(c1ccccc1)S(=O)(=O)O)N1CCCC2CCCCC21 (centres unmarked) [Compound L319N53] | – | – | – | – | – | – | increased Erk1/2 phosphorylation | no effect |
